This is an account of results in patent publication US20240132464A1, “HETEROCYCLIC COMPOUNDS AS E3 LIGASE INHIBITORS” (Accutar Biotechnology Inc., priority 2022, published 2024).

The structures appear in SMILES notation.

In the test the target is T1, GID4 (Uniprot ID: Q81VV7, residues 124-289) (Homo sapiens, UniProt Q8IVV7).
T1 construct: GID4 (Uniprot ID: Q81VV7, residues 124-289)
T1 sequence (Q8IVV7 124-289): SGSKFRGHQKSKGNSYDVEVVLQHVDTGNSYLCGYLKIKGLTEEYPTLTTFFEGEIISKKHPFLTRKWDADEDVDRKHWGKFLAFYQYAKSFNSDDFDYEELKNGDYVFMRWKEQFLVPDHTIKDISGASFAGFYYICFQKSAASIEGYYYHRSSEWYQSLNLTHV
Nature of the test: GID4 competitive binding assay (AlphaScreen, GID4/degron peptide PGLW). Conditions: 24 nM GID4, 48 nM biotinylated degron peptide PGLW, 4° C., read-out: IC50 (Inhibition of GID4/Degron binding by test compounds). As to the method: GID4 Competitive Binding Assay
GID4 binding affinity of compounds disclosed herein was measured by monitoring the interaction of GID4 with its degron peptide (PGLW) in the presence of the test compounds. A truncated version of GID4 (Uniprot ID: Q81VV7, residues 124-289) with a 6*His at its C-terminus was used in this assay. Tetrapeptide, PGLW, was synthesized and tagged with an additional lysine labeled with biotin at its sidechain.
GID4 competitive binding assays were performed in a 384-well plate at 4° C. in a 20 μL reaction volume. Briefly, 24 nM GID4 (final concentration) proteins were pre-incubated with 48 nM biotinylated degron peptide (final concentration) in an assay buffer containing 20 mM HEPES, pH 7.5, 100 mM NaCl, 1 mM DTT, 0.1% Tween-20, and 0.05% BSA in the presence of the test compound in 2% DMSO (final concentration) at various concentrations for 2 h. 5 ug/ml Streptavidin ALphaScreen donor beads and 5 ug/ml nickel chelate (Ni-NTA) ALphaScreen acceptor beads (PerkinElmer, 6760619C) (final concentrations) were then added to the mixture. After an incubation of 1 h at 4° C., the fluorescent signals were obtained on the EnVision® 2105 Multilabel Plate Reader (PerkinElmer).
Raw ALphaScreen data were converted to a percentage of inhibition (relative to DMSO) using the following equations: […]
For a given test compound concentration X:
Signal (X)=Signal (GID4 & peptide & compound)−Signal (GID4 & buffer & compound)
Percentage of inhibition at concentration X=[1−Signal(X)/Signal (DMSO)]*100% b)
The IC50 values were determined by nonlinear regression of plots of [inhibitor] vs. percentage of inhibition with variable slope.
Table 3 summarizes the inhibition of binding between GID4 and degron peptide with compounds of the present disclosure. Compounds were ranked into bins as follows for IC50: A indicates <500 nM; B indicates 500 nM-5000 nM; C indicates >5000 nM.
In the case of `Nc1cc(N2CCNC(c3cc(C(F)(F)F)ccc3Br)C2)nc(N)n1` (single isomer, unassigned) [Compound 11, (R/S)-6-(3-(2-bromo-5-(trifluoromethyl)phenyl)piperazin-1-yl)pyrimidine-2,4-diamine], the IC50 lay within 500 to 5000 nM. For `CC(C)c1cc(N2CCNC(c3cc(C(F)(F)F)ccc3Br)C2)nc(N)n1` (single isomer, unassigned) [Compound 13, (R/S)-4-(3-(2-bromo-5-(trifluoromethyl)phenyl)piperazin-1-yl)-6-isopropylpyrimidin-2-amine], the IC50 is below 500 nM. For the compound `CN1CCN(C(=O)c2ccc(Br)c(C3CN(c4cc(N)nc(N)n4)CCN3)c2)CC1` (single isomer, unassigned) [Compound 15, (R/S)-(4-bromo-3-(4-(2,6-diaminopyrimidin-4-yl)piperazin-2-yl)phenyl)(4-methylpiperazin-1-yl)methanone], the IC50 is below 500 nM. With `CC(C)c1cc(N2CCNC(c3cc(C(=O)N4CCN(C)CC4)ccc3Br)C2)nc(N)n1` (single isomer, unassigned) [Compound 17, (R/S)-(3-(4-(2-amino-6-isopropylpyrimidin-4-yl)piperazin-2-yl)-4-bromophenyl)(4-methylpiperazin-1-yl)methanone], the IC50 is below 500 nM. Regarding `CC(C)c1cc(N2CCNC(c3cc(C(=O)N4CCN(C)CC4)ccc3Br)C2)nc(N)n1` (single isomer, unassigned) [Compound 18, (S/R)-(3-(4-(2-amino-6-isopropylpyrimidin-4-yl)piperazin-2-yl)-4-bromophenyl)(4-methylpiperazin-1-yl)methanone], the IC50 lay in the range of 500 to 5000 nM. Take `CC(C)c1cc(N2CCNC(c3cc(C(=O)NCCN(C)C)ccc3Br)C2)nc(N)n1` (single isomer, unassigned) [Compound 20, R or S-3-(4-(2-amino-6-isopropylpyrimidin-4-yl)piperazin-2-yl)-4-bromo-N-(2-(dimethylamino)ethyl)benzamide]: the IC50 is 500 to 5000 nM.

For the compound `CCOc1ccc(Br)c(C2CN(c3cc(N)nc(N)n3)CCN2)c1` (single isomer, unassigned) [Compound 23, (R/S)-6-(3-(2-bromo-5-ethoxyphenyl)piperazin-1-yl)pyrimidine-2,4-diamine], the IC50 lay in the range of 500 to 5000 nM. `CCOc1ccc(Br)c(C2CN(c3cc(N)nc(N)n3)CCN2)c1` (single isomer, unassigned) [Compound 24, (S/R)-6-(3-(2-bromo-5-ethoxyphenyl)piperazin-1-yl)pyrimidine-2,4-diamine]: the IC50 was below 500 nM.

As to `CCOc1ccc(Br)c(C2CN(c3cc(C(C)C)nc(N)n3)CCN2)c1` (single isomer, unassigned) [Compound 25, (R/S)-4-(3-(2-bromo-5-ethoxyphenyl)piperazin-1-yl)-6-isopropylpyrimidin-2-amine], the IC50 was below 500 nM. Turning to `CCOc1ccc(Br)c(C2CN(c3cc(C(C)C)nc(N)n3)CCN2)c1` (single isomer, unassigned) [Compound 26, (S/R)-4-(3-(2-bromo-5-ethoxyphenyl)piperazin-1-yl)-6-isopropylpyrimidin-2-amine], the IC50 is 500 to 5000 nM. As to `CCc1cc(N2CCNC(c3cnc4ccccn34)C2)nc(N)n1` (single isomer, unassigned) [Compound 27, (R/S)-4-ethyl-6-(3-(imidazo[1,2-a]pyridin-3-yl)piperazin-1-yl)pyrimidin-2-amine], the IC50 is above 5000 nM.

`CCc1cc(N2CCNC(c3cnc4ccccn34)C2)nc(N)n1` (single isomer, unassigned) [Compound 28, (S/R)-4-ethyl-6-(3-(imidazo[1,2-a]pyridin-3-yl)piperazin-1-yl)pyrimidin-2-amine]: the IC50 is below 500 nM. With `CC(C)c1cc(N2CCNC(c3cc(N4CC(CO)C4)ccc3Br)C2)nc(N)n1` (single isomer, unassigned) [Compound 30, (R/S)-(1-(3-(4-(2-amino-6-isopropylpyrimidin-4-yl)piperazin-2-yl)-4-bromophenyl)azetidin-3-yl)methanol] the figure was below 500 nM; with `CC(C)c1cc(N2CCNC(c3cc(N4CC(CO)C4)ccc3Br)C2)nc(N)n1` (single isomer, unassigned) [Compound 31, (S/R)-(1-(3-(4-(2-amino-6-isopropylpyrimidin-4-yl)piperazin-2-yl)-4-bromophenyl)azetidin-3-yl)methanol], 500 to 5000 nM; with `Brc1ccccc1C1CN(c2ccnc3[nH]cnc23)CCN1` (single isomer, unassigned) [Compound 35, (R/S)-7-(3-(2-bromophenyl)piperazin-1-yl)-3H-imidazo[4,5-b]pyridine], 500 to 5000 nM.

Take `Nc1nc(N2CCOC(c3ccccc3Br)C2)c2cc[nH]c2n1` (single isomer, unassigned) [Compound 39, (R/S)-4-(2-(2-bromophenyl)morpholino)-7H-pyrrolo[2,3-d]pyrimidin-2-amine]: the IC50 is above 5000 nM.

Turning to `Nc1nc(N2CCNC(c3ccccc3Br)C2)c2[nH]ccc2n1` (single isomer, unassigned) [Compound 42, (R/S)-4-(3-(2-bromophenyl)piperazin-1-yl)-5H-pyrrolo[3,2-d]pyrimidin-2-amine], the IC50 was above 5000 nM. Under `Nc1nc(NC2CC2)cc(N2CCN(CCO)C(c3ccccc3Br)C2)n1` (single isomer, unassigned) [Compound 44, (R/S)-2-(4-(2-amino-6-(cyclopropylamino)pyrimidin-4-yl)-2-(2-bromophenyl)piperazin-1-yl)ethan-1-ol] stands 500 to 5000 nM. With `Nc1nc(N2CCOC(c3ccccc3Br)C2)c2[nH]ccc2n1` (single isomer, unassigned) [Compound 46, (R/S)-4-(2-(2-bromophenyl)morpholino)-5H-pyrrolo[3,2-d]pyrimidin-2-amine], the IC50 was in the range of 500 to 5000 nM. With `Nc1nc(N)c(F)c(N2CCOC(c3ccccc3Br)C2)n1` (single isomer, unassigned) [Compound 48, (S/R)-6-(2-(2-bromophenyl)morpholino)-5-fluoropyrimidine-2,4-diamine] the figure was above 5000 nM; with `Nc1nc(N)c(F)c(N2CCOC(c3ccccc3Br)C2)n1` (single isomer, unassigned) [Compound 49, (R/S)-6-(2-(2-bromophenyl)morpholino)-5-fluoropyrimidine-2,4-diamine], above 5000 nM. Turning to `CN1CCN(c2ccc(Br)c(C3CN(c4cc(N)nc(N)n4)CCN3)c2)CC1` (single isomer, unassigned) [Compound 50, R or S 6-(3-(2-bromo-5-(4-methylpiperazin-1-yl)phenyl)piperazin-1-yl)pyrimidine-2,4-diamine], the IC50 is below 500 nM. Under `CN1CCN(c2ccc(Br)c(C3CN(c4cc(N)nc(N)n4)CCN3)c2)CC1` (single isomer, unassigned) [Compound 51, R or S 6-(3-(2-bromo-5-(4-methylpiperazin-1-yl)phenyl)piperazin-1-yl)pyrimidine-2,4-diamine] stands 500 to 5000 nM.

As to `Nc1nc(N2CCNC(c3ccccc3Br)C2)c2cc[nH]c2n1` (single isomer, unassigned) [Compound 56, (R/S)-4-(3-(2-bromophenyl)piperazin-1-yl)-7H-pyrrolo[2,3-d]pyrimidin-2-amine], the IC50 lay in the range of 500 to 5000 nM.

On to `CC(C)c1nc(N)cc(N2CCOC(c3ccccc3Br)C2)n1` (single isomer, unassigned) [Compound 73, (R/S)-6-(2-(2-bromophenyl)morpholino)-2-isopropylpyrimidin-4-amine], for which the IC50 lay within 500 to 5000 nM.

As for `CC(C)c1nc(N)cc(N2CCNC(c3ccccc3Br)C2)n1` (single isomer, unassigned) [Compound 76, (R/S)-6-(3-(2-bromophenyl)piperazin-1-yl)-2-isopropylpyrimidin-4-amine], the IC50 was below 500 nM.

Regarding `Nc1nc(NCC2CC2)cc(N2CCOC(c3ccccc3Br)C2)n1` (single isomer, unassigned) [Compound 77, R or S-6-(2-(2-bromophenyl)morpholino)-N^4-(cyclopropylmethyl)pyrimidine-2,4-diamine], the IC50 is above 5000 nM.

For the compound `Nc1nc(NCC2CC2)cc(N2CCOC(c3ccccc3Br)C2)n1` (single isomer, unassigned) [Compound 78, R or S-6-(2-(2-bromophenyl)morpholino)-N^4-(cyclopropylmethyl)pyrimidine-2,4-diamine], the IC50 is below 500 nM.

As to `Nc1nc(NC2CC2)cc(N2CCOC(c3ccccc3)C2)n1` (single isomer, unassigned) [Compound 96, (R/S)-N4-cyclopropyl-6-(2-phenylmorpholino)pyrimidine-2,4-diamine], the IC50 is above 5000 nM.
